From ChEMBL document CHEMBL1201862, “PubChem BioAssay data set” (2004)
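Cultured in 96-well plates, cells were exposed to test compound for 48 hours across five concentrations. The concentration for 50% growth inhibition is given as GI50.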 The source made the active and inactive calls. No stated cut-off is given here; in the data, active = GI50 up to about 1.1 µM and inactive = higher.

Columns and labels:
Assay in all cases: NCI anticancer screen, dose series, 48 h
A549 = test system: A549
HCT-116 = test system: HCT-116
HL-60 = test system: HL-60
K562 = test system: K562
MOLT-4 = test system: MOLT-4
Malme-3M = test system: Malme-3M
NCI-H522 = test system: NCI-H522
RPMI-8226 = test system: RPMI-8226
SN12C = test system: SN12C
SNB-19 = test system: SNB-19
UACC-257 = test system: UACC-257
UO-31 = test system: UO-31
XF498 = test system: XF498

Measured: GI50

Brc1ccc2[nH]c3c(C4=NCCC4)nccc3c2c1
inactive: A549 16.3 µM | HCT-116 9.86 µM | HL-60 5.79 µM | K562 11.3 µM | MOLT-4 8.45 µM | Malme-3M 1.91 µM | NCI-H522 9.12 µM | RPMI-8226 9.27 µM | SN12C 19.1 µM | SNB-19 21.7 µM | UACC-257 16.9 µM | UO-31 14.8 µM | XF498 > 39.5 µM
